Common to all, as to format: cell-based, human
Assay [1] concerns hEAAT2 promoter activity, mRNA levels and protein levels. Kind of assay: Pathway-specific inhibitors on modulated hEAAT2 promoter activity, mRNA and protein in PHFA. As to conditions: PDTC 100 μM, PD 50 μM; for effect on EGF (or TGF-α) enhancement of hEAAT2 promoter activity, mRNA and protein levels: EGF 30 ng/ml; for effect on EGF (or TGF-α) enhancement of hEAAT2 promoter activity, mRNA and protein levels / effect on bromo-cAMP (or dbcAMP) enhancement of hEAAT2 expression: KT5720 5 μM, AG1478 1 μM, wortmannin 100 nM; for effect on bromo-cAMP (or dbcAMP) enhancement of hEAAT2 expression: bromo-cAMP 250 μM. On the procedure:
(§1) FIG. 5A-E. Effect of pharmacological inhibitors on hEAAT2 promoter activity, and mRNA and protein expression in PHFA following various treatment protocols. A. hEAAT2 promoter activity in PHFA, either untreated (−) or treated with EGF (30 ng/ml), in the absence (−) or presence (+) of KT5720 (5 μM), AG1478 (1 μM), PDTC (100 μM), wortmannin (WRT) (100 nM) or PD98049 (PD) (50 μM). B. hEAAT2 promoter activity in PHFA, either untreated (−) or treated with bromo-cAMP (250 μM) in the absence (−) or presence (+) of KT5720 (5 μM), AG1478 (1 μM), PDTC (100 μM), wortmannin (WRT) (100 nM) or PD98049 (PD) (50 μM). C. hEAAT2 promoter activity in PHFA, either untreated (−) or treated with TNF-α (200 U/ml), in the absence (−) or presence (+) of KT5720 (5 μM), AG1478 (1 μM), PDTC (100 μM), wortmannin (WRT) (100 nM) or PD98049 (PD) (50 μM). D. The effect of the various treatment protocols on hEAAT2 and GAPDH mRNA levels. Upper panel presents relative hEAAT2 RNA expression versus GAPDH expression relative to control untreated or treated samples based on scanning of autoradiograms. Lower panel, actual Northern blots. E. The effect of the various treatment protocols on EAAT2 and ACTIN protein levels. Upper panel presents relative EAAT2 protein expression versus ACTIN expression relative to control untreated or treated samples based on scanning of autoradiograms. Individual experiments were performed 3 times using triplicate samples and S.D. from the mean is presented.
Biochemical Basis for Positive and Negative Regulation of hEAAT2 Expression in PHFA. To define the biochemical pathways relevant to the regulation of hEAAT2 expression in PHFA resulting from the different treatment protocols, a pharmacological approach was employed. This involved the use of well-characterized pathway-specific inhibitors and determining effects on hEAAT2 promoter activity, mRNA levels and protein levels (FIG. 5). The inhibitors included, KT5720 (a protein kinase A. (PKA) inhibitor), AG1478 (a tyrosine kinase inhibitor), worttnannin (a phosphatidylinositol 3-kinase (PI-3K) inhibitor), pyrrolidinedithiocarbamate (PDTC, an inhibitor of NF-κB activation) and PD98059 (a mitogen-activated kinase (MEK1/MEK2) inhibitor) (Zelenaia et al., 2000, Mol Pharmacol 57(4):667-678).

The next assay concerns hEAAT2 protein. Kind of assay: Western blot of EAAT2 protein in PHFA. On the procedure: as §1
(§2) Northern and Western Blotting Assays. Total cellular RNA was isolated by the guanidinium/phenol extraction method and Northern blotting was performed as described (Huang et al., 2001, Oncogene 20(48):7051-7063; Su et al., 2000, Oncogene 19(30):3411-3421; Su et al., 2001, Nucleic Acids Res 29(8):1661-1671). Western blotting assays were performed as described (Su et al., 1998, Proc Natl Acad Sci USA 95(24):14400-14405; Su et al., 2002, Oncogene 21(22):3592-602).
For orientation: In western blotting, separated proteins are transferred to a membrane and probed.

The test system of the next assay is hEAAT2 mRNA. Nature of the assay: Northern blot of hEAAT2 mRNA in PHFA treated with modulators. As to conditions: for hEAAT2 mRNA expression: 7-day treatment, EGF 30 ng/ml, TGF-α 30 ng/ml, dbcAMP 200 μM, bromo-cAMP 100 μM, TNF-α 200 U/ml. On the procedure: (§3) FIG. 4A-D. Effect of modulators of hEAAT2 activity on hEAAT2 expression and hEAAT2 promoter activity in PHFA. A. A Northern analysis of hEAAT2 and GAPDH mRNA expression following treatment with EGF (30 ng/ml), TGF-α (30 ng/ml), dbcAMP (200 μM, bromo-cAMP (100 μM) or TNF-α (200 U/ml) for 7 days. B. Nuclear run-on assays determining the relative rates of hEAAT2 and GAPDH transcription as a function of 7-day treatment with the same concentrations of the indicated agents. C. A time course of mRNA expression of hEAAT2 and GAPDH following treatment with EGF, bromo-cAMP or TNF-α (same concentrations as in A.). D. Fold luciferase activity in PHFA transfected with flhEAAT2Prom-luc or various deletion mutants of hEAAT2 and non-transfected controls treated with the indicated compounds for four days.
as §2
Positive and Negative Regulation of hEAAT2 Transcription, Promoter Activity and mRNA Levels in PHFA. Several enhancers of GLT-1 expression in rat astrocytes have been identified, including epidermal growth factor (EGF), transforming growth factor-α (TGF-α) and dibutyryl cyclic AMP (dbcAMP) (Swanson et al., 1997, J Neurosci 17(3):932-940; Zelenaia et al., 2000, Mol Pharmacol 57(4):667-678). Based on these considerations, experiments were performed to determine if these agents similarly modify human hEAAT2 expression in PHFA. Consistent with previous observations in rat astrocytes, 7-day treatment with EGF, TGF-α, and two analogs of cAMP, dbcAMP and bromo-cAMP, stimulated hEAAT2 mRNA expression in PHFA, whereas TNF-α decreased expression (FIG. 4B). […] In contrast, TNF-α decreased expression by 48 h (FIG. 4C).

The test system of another assay is hEAAT2 promoter. Nature of the assay: flhEAAT2Prom-luc and deletion mutant luciferase reporter assay in PHFA treated with modulators. As to conditions: deletion mutant; for stimulation of promoter activity after deletion of bp −2426 to bp −703 / upregulation of promoter activity after deletion of bp −703 to bp −326: four day treatment. On the procedure:
as §3
Construction of hEAAT2 Promoter Deletion Mutants and Performance of the Luciferase Assays. 5′-deletion mutants of the hEAAT2 promoter were made with exonuclease III digestion using the Erase-A-Base System (Promega) as described for the PEG-3 promoter (Su et al., 2000, Oncogene 19(30):3411-3421). The flhEAAT2Prom-luc and flhEAAT2Prom-luc deletion mutants were cloned into the pGL3-basic luciferase reporter vector (Promega) and luciferase reporter assays were performed as described (Su et al., 2000, Oncogene 19(30):3411-3421; Su et al., 2001, Nucleic Acids Res 29(8):1661-1671), except that instead of using lipofectamine, which was toxic to PHFA, the calcium phosphate precipitation transfection technique was used (Babiss et al., 1986, Proc Natl Acad Sci USA 83(7):2167-2171).
Preferential Expression of the hEAAT2 Promoter in PHFA and Deletion Analysis of the hEAAT2 Promoter. hEAAT2 is expressed in brain-derived cells, mainly astrocytes (Tanaka et al., 1997, Science 276(5319):1699-1702; Anderson et al., 2000, Glia 32(1):1-14). Experiments were performed to confirm hEAAT2 promoter activity in normal human astrocytes and to determine expression levels in other cell types (FIG. 2A). Primary early passage and established human normal and tumor cell lines were co-transfected with a putative full-length ˜2.5 kb hEAAT2 promoter, a SacII fragment extending from bp −2426 to bp +44, was cloned into the pGL3-basic vector (Promega), where it drove expression of the firefly luciferase (luc) gene, and a pSV-β-galactosidase expression plasmid. Relative fold expression of a full length hEAAT2 promoter-luciferase (flhEAAT2Prom-luc) construct was determined as described (Su et al., 2000, Oncogene 19(30):3411-3421; Su et al., 2001, Nucleic Acids Res 29(8):1661-1671), and activity versus transfection with a pSV-β-galactosidase plasmid was calculated as described (Su et al., 2000, Oncogene 19(30):3411-3421; Su et al., 2001, Nucleic Acids Res 29(8):1661-1671) to equalize for differences in transfection efficiency.
To examine further the relationship between hEAAT2 and treatment with the various glutamate transporter modulators, transient transfection assays were performed in PHFA using the flhEAAT2Prom-luc constructs and various deletions thereof (FIG. 4D). […] In the case of dbcAMP, promoter activity was enhanced by ˜3-fold.
In general terms: Reporter assays use an easily measured gene product as a stand-in for the process of interest.

In a further assay the test system is hEAAT2 transcription. Kind of assay: Nuclear run-on assay of hEAAT2 transcription in PHFA. As to conditions: 7-day treatment. As to the method:
as §3
Primer Extension Analysis and Nuclear Run-on Assays. Primer extension assays were performed as described (Su et al., 2000, Oncogene 19(30):3411-3421). A primer with the sequence 5′-[…]-3′ (SEQ ID NO:6) complementary to the 5′ UTR of the hEAAT2 cDNA was used for this assay. Nuclear run-on assays were performed as described (Su et al., 1997, Proc Natl Acad Sci USA 94(17):9125-9130).
To examine whether stimulation of hEAAT2 expression involves transcriptional changes, nuclear run-on assays were performed.

For the compound `COc1cccc(-c2cc(=O)c3ccccc3o2)c1N` [PD98059], in assay [1], the “effect on EGF (or TGF-α) enhancement of hEAAT2 promoter activity, mRNA and protein levels” value (“effect on EGF (or TGF-α) enhancement” for short) is “significantly inhibited but not extinguished”; the “effect on bromo-cAMP (or dbcAMP) enhancement of hEAAT2 expression” value (shortened to “effect on bromo-cAMP”) is given as “partially inhibited”. In addition, the “effect on TNF-α-decreased hEAAT2 promoter, mRNA and protein levels” value in assay [1] (cotreatment with TNF-α 200 U/ml) is “partial restoration of normal levels of hEAAT2 protein”.
On to “EGF: epidermal growth factor, from Invitrogen”, for which the hEAAT2 protein levels result in the assay on hEAAT2 protein is recorded as “upregulated”. Besides, in the assay on hEAAT2 mRNA, the “hEAAT2 mRNA expression” value is given as “stimulated”. The “time of highest (maximum) hEAAT2 mRNA upregulation” value in the assay with hEAAT2 mRNA (time course) amounted to 48 h. For the same compound, in the assay on hEAAT2 promoter, the “promoter activity after further deletion of bp −326 to bp −120” value is given as “did not result in any additional reduction”, the “stimulation of promoter activity after deletion of bp −2426 to bp −703” value (“stimulation of promoter activity” below) is recorded as “did not significantly decrease” and the “upregulation of promoter activity after deletion of bp −703 to bp −326” value (“upregulation of promoter activity” below) was “a level approximating that found in uninduced PHFA”. Besides, the “relative rate of transcription of hEAAT2 RNA compared with GAPDH” value (shortened to “relative rate”) in the assay on hEAAT2 transcription is recorded as “elevated”.
Regarding `Nc1ncnc2c1nc(Br)n2[C@@H]1O[C@@H]2COP(=O)(O)O[C@H]2[C@H]1O` [bromo-cAMP], the hEAAT2 protein levels entry in the assay with hEAAT2 protein is listed as “upregulated”. The “hEAAT2 mRNA expression” value with hEAAT2 mRNA is “stimulated”. In addition, the “time of highest (maximum) hEAAT2 mRNA upregulation” value with hEAAT2 mRNA (time course) amounted to 48 h. Besides, the “time by which hEAAT2 mRNA expression was changed” value in the assay with hEAAT2 mRNA (time course, bromo-cAMP enhanced, TNF-α decreased) was at most 24 h. Further, in the assay on hEAAT2 promoter, the “stimulation of promoter activity” value is on record as “did not significantly decrease” and the “upregulation of promoter activity” value was “most relevant”. The “relative rate” value in the assay on hEAAT2 transcription is recorded as “elevated”.
As for “TGF-α: transforming growth factor-α, from Invitrogen”, in the assay with hEAAT2 protein, the hEAAT2 protein levels entry was “upregulated”. In addition, the “hEAAT2 mRNA expression” value in the assay on hEAAT2 mRNA is “stimulated”. In the assay with hEAAT2 promoter, the “promoter activity after further deletion of bp −326 to bp −120” value is reported as “did not result in any additional reduction”, the “stimulation of promoter activity” value was “did not significantly decrease” and the “upregulation of promoter activity” value is listed as “a level approximating that found in uninduced PHFA”. The “relative rate” value with hEAAT2 transcription is given as “elevated”.
In the case of `CCCCCCOC(=O)[C@]1(O)C[C@@H]2O[C@@]1(C)n1c3ccccc3c3c4c(c5c6ccccc6n2c5c31)C(=O)NC4` [KT5720], in assay [1], the “effect on EGF (or TGF-α) enhancement” value is on record as “unaffected”; the “effect on bromo-cAMP” value was “eliminated”.
`COc1cc2ncnc(Nc3cccc(Cl)c3)c2cc1OC` [AG1478]: in assay [1], the “effect on EGF (or TGF-α) enhancement” value is “abolished”; the “effect on bromo-cAMP” value was “unaffected”.

The values are drawn from patent publication US20060127980A1, “Human excitatory amino acid transporter-2 gene promoter and uses thereof” (priority 2003, published 2006).
